Reference: PubChem BioAssay AID248 (DTP/NCI, 2004)
Toxic doses and inconclusive results are not listed. Rule as the data show it: active = T/C of 150% or more; inactive = T/C below 125%.

Test system: L1210 leukemia ip in BDF1 mice, survival T/C
Test: NCI In Vivo Anticancer Drug Screen. Data for tumor model L1210 Leukemia (intraperitoneal) in B6D2F1 (BDF1) mice
Details: endpoint: mean survival time, higher = longer survival
In short: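 Transplanted-tumor mice were given test agent; controls received vehicle only. Survival readings from the two groups were divided (treated over control).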

[1] = dose: 100.0 mg/kg/injection, schedule: Q01DX009 (ip), vehicle: saline
[2] = dose: 100.0 mg/kg/injection, schedule: Q04DX003 (ip), vehicle: saline
[3] = dose: 200.0 mg/kg/injection, schedule: Q01DX009 (ip), vehicle: saline
[4] = dose: 200.0 mg/kg/injection, schedule: Q04DX003 (ip), vehicle: saline
[5] = dose: 400.0 mg/kg/injection, schedule: Q01DX009 (ip), vehicle: saline
[6] = dose: 400.0 mg/kg/injection, schedule: Q04DX003 (ip), vehicle: saline
[7] = dose: 100.0 mg/kg/injection, schedule: Q04DX003 (ip), vehicle: saline with Tween-80
[8] = dose: 200.0 mg/kg/injection, schedule: Q04DX003 (ip), vehicle: saline with Tween-80
[9] = dose: 400.0 mg/kg/injection, schedule: Q04DX003 (ip), vehicle: saline with Tween-80
[10] = dose: 100.0 mg/kg/injection, schedule: Q01DX009 (ip), vehicle: Klucel (hydroxypropylcellulose) (HPC)
[11] = dose: 100.0 mg/kg/injection, schedule: Q04DX003 (ip), vehicle: Klucel (hydroxypropylcellulose) (HPC)
[12] = dose: 200.0 mg/kg/injection, schedule: Q04DX003 (ip), vehicle: Klucel (hydroxypropylcellulose) (HPC)
[13] = dose: 400.0 mg/kg/injection, schedule: Q04DX003 (ip), vehicle: Klucel (hydroxypropylcellulose) (HPC)
[14] = dose: 25.0 mg/kg/injection, schedule: Q04DX003 (ip), vehicle: Klucel (hydroxypropylcellulose) (HPC)
[15] = dose: 50.0 mg/kg/injection, schedule: Q04DX003 (ip), vehicle: Klucel (hydroxypropylcellulose) (HPC)

Measured: T/C

COC1OC(CNCCO)C2OC(C)(C)OC12 (stereo unspecified)
inactive: [1] 103 % of control | [2] 101 % of control | [3] 96 % of control | [4] 98 % of control | [5] 101 % of control | [6] 95 % of control

Cc1nc(N)[nH]c(=O)c1CCCCCN
inactive: [2] 101 % of control | [4] 106 % of control | [6] 100 % of control

O=C(c1ccccc1Br)N1CCN=C(c2ccccc2)C=C1c1ccccc1
inactive: [2] 93 % of control | [4] 94 % of control | [6] 100 % of control

CCOC(=O)c1cc(N(CCOS(C)(=O)=O)CCOS(C)(=O)=O)ccc1[N+](=O)[O-]
inactive: dose: 50.0 mg/kg/injection, schedule: Q01DX001 (ip), vehicle: saline 103 % of control | dose: 100.0 mg/kg/injection, schedule: Q01DX001 (ip), vehicle: saline 97 % of control | dose: 200.0 mg/kg/injection, schedule: Q01DX001 (ip), vehicle: saline 97 % of control | dose: 400.0 mg/kg/injection, schedule: Q01DX001 (ip), vehicle: saline 97 % of control

Cc1cccc(C2=NCCN2)c1C
inactive: dose: 5.0 mg/kg/injection, schedule: Q01DX009 (ip), vehicle: saline with Tween-80 97 % of control | dose: 10.0 mg/kg/injection, schedule: Q01DX009 (ip), vehicle: saline with Tween-80 103 % of control | dose: 20.0 mg/kg/injection, schedule: Q01DX009 (ip), vehicle: saline with Tween-80 97 % of control

CCOC(=O)C1(C(=O)OCC)CC(C)C1
inactive: [1] 101 % of control | [2] 101 % of control | [3] 108 % of control | [4] 93 % of control | [5] 96 % of control | [6] 104 % of control

COc1ccc(N2CCN(/C=C/C(=O)c3ccc(C)cc3C)CC2)cc1
inactive: [7] 97 % of control | [8] 95 % of control | [9] 106 % of control

Clc1ccc2c(c1)N(C1CCCN(Cc3ccccc3)C1)c1ccccc1S2 (stereo unspecified)
inactive: dose: 100.0 mg/kg/injection, schedule: Q01DX001 (ip), vehicle: carboxymethylcellulose (CMC) 94 % of control | dose: 200.0 mg/kg/injection, schedule: Q01DX001 (ip), vehicle: carboxymethylcellulose (CMC) 94 % of control | dose: 400.0 mg/kg/injection, schedule: Q01DX001 (ip), vehicle: carboxymethylcellulose (CMC) 90 % of control

[N-]=[N+]=C1N=CN=C1c1ncnn1Cc1ccccc1
inactive: dose: 5.0 mg/kg/injection, schedule: Q01DX001 (ip), vehicle: other 105 % of control | dose: 10.0 mg/kg/injection, schedule: Q01DX001 (ip), vehicle: other 97 % of control | dose: 20.0 mg/kg/injection, schedule: Q01DX001 (ip), vehicle: other 94 % of control | dose: 40.0 mg/kg/injection, schedule: Q01DX001 (ip), vehicle: other 94 % of control | dose: 80.0 mg/kg/injection, schedule: Q01DX001 (ip), vehicle: other 101 % of control

Nc1nc(-c2ccccc2)cc(=O)[nH]1
inactive: [10] 88 % of control | dose: 200.0 mg/kg/injection, schedule: Q01DX009 (ip), vehicle: Klucel (hydroxypropylcellulose) (HPC) 97 % of control | dose: 400.0 mg/kg/injection, schedule: Q01DX009 (ip), vehicle: Klucel (hydroxypropylcellulose) (HPC) 93 % of control

CCN(CC)CCCNC(c1ccc(Cl)cc1)C(Cl)(Cl)Cl (stereo unspecified)
inactive: dose: 75.0 mg/kg/injection, schedule: Q01DX001 (ip), vehicle: saline 88 % of control

COc1ccc(OC)c(NC(=O)N(Cc2ccccc2)Cc2ccccc2)c1
inactive: [11] 93 % of control | [12] 87 % of control | [13] 88 % of control

O=C(CNC(=O)OCc1ccccc1)NCCCCCCCCCCNC(=O)CNC(=O)OCc1ccccc1
inactive: dose: 10.0 mg/kg/injection, schedule: Q01DX Z (ip), vehicle: saline 104 % of control | dose: 30.0 mg/kg/injection, schedule: Q01DX Z (ip), vehicle: saline 90 % of control | dose: 100.0 mg/kg/injection, schedule: Q01DX Z (ip), vehicle: saline 90 % of control | dose: 300.0 mg/kg/injection, schedule: Q01DX Z (ip), vehicle: saline 95 % of control

OC1C#CCCCCC(O)C#CCCCC1 (stereo unspecified)
inactive: dose: 18.75 mg/kg/injection, schedule: Q01DX009 (ip), vehicle: saline 97 % of control | dose: 37.5 mg/kg/injection, schedule: Q01DX009 (ip), vehicle: saline 95 % of control | dose: 37.5 mg/kg/injection, schedule: Q04DX003 (ip), vehicle: acetone 100 % of control | dose: 75.0 mg/kg/injection, schedule: Q01DX009 (ip), vehicle: saline 97 % of control | dose: 75.0 mg/kg/injection, schedule: Q04DX003 (ip), vehicle: acetone 97 % of control | dose: 150.0 mg/kg/injection, schedule: Q04DX003 (ip), vehicle: acetone 92 % of control

CN1CC(C(=O)NCc2ccccc2)CC2c3cccc4[nH]cc(c34)CC21 (stereo unspecified)
inactive: [14] 96 % of control | [15] 91 % of control | [11] 96 % of control | [12] 89 % of control | [13] 91 % of control

NC(=O)C1(c2ccccc2)CCN(Cc2ccccc2)CC1
inactive: dose: 25.0 mg/kg/injection, schedule: Q01DX009 (ip), vehicle: saline with Tween-80 100 % of control | dose: 50.0 mg/kg/injection, schedule: Q01DX009 (ip), vehicle: saline with Tween-80 98 % of control | dose: 50.0 mg/kg/injection, schedule: Q04DX003 (ip), vehicle: saline with Tween-80 95 % of control | dose: 100.0 mg/kg/injection, schedule: Q01DX009 (ip), vehicle: saline with Tween-80 94 % of control | [7] 92 % of control

CCCCCCCCCCCCCCCCCC(=O)NCCNC(=O)CCCCCCCCCCCCCCCCC
inactive: dose: 12.5 mg/kg/injection, schedule: Q04DX003 (ip), vehicle: Klucel (hydroxypropylcellulose) (HPC) 103 % of control | dose: 25.0 mg/kg/injection, schedule: Q01DX009 (ip), vehicle: Klucel (hydroxypropylcellulose) (HPC) 108 % of control | [14] 107 % of control | dose: 50.0 mg/kg/injection, schedule: Q01DX009 (ip), vehicle: Klucel (hydroxypropylcellulose) (HPC) 104 % of control | [15] 104 % of control | [10] 104 % of control | [11] 90 % of control | dose: 150.0 mg/kg/injection, schedule: Q01DX009 (ip), vehicle: Klucel (hydroxypropylcellulose) (HPC) 88 % of control | [12] 96 % of control

N#CC(=C1c2ccccc2-c2ccccc21)c1ccccc1
inactive: [11] 100 % of control | [12] 105 % of control | [13] 98 % of control

O=C(NNc1ccccc1)Nc1ccccc1
inactive: [10] 107 % of control

CC1=CC(O)CCC1 (stereo unspecified)
inactive: [7] 104 % of control | [8] 109 % of control | [9] 93 % of control

OCCN(Cc1ccccc1)Cc1ccccc1
inactive: [7] 101 % of control | [8] 95 % of control

CCCCCCCCCCCCCCCCCC(=O)N/N=C/c1cc(C(C)(C)C)c(O)c(C(C)(C)C)c1
inactive: dose: 100.0 mg/kg/injection, schedule: Q01DX009 (ip), vehicle: other 90 % of control | dose: 200.0 mg/kg/injection, schedule: Q01DX009 (ip), vehicle: other 88 % of control | dose: 400.0 mg/kg/injection, schedule: Q01DX009 (ip), vehicle: other 96 % of control

CC(=O)Nc1ccc2c(ccc3cccc[n+]32)c1
inactive: dose: 10.0 mg/kg/injection, schedule: Q01DX001 (ip), vehicle: saline 93 % of control | dose: 20.0 mg/kg/injection, schedule: Q01DX001 (ip), vehicle: saline 98 % of control
